Earlier results in patent publication US8440213B2, “Pesticides formulations” (priority 2003, dated 2013).
≈ marks a conversion by molar mass, not a printed value.

Conditions: in water, at 20° C.

SMILES | Solubility
CCOP(=S)(OCC)Oc1nc(Cl)c(Cl)cc1Cl [Chlorpyriphos] | 1.4 µg/mL (≈ 3.99 µM)
CCOc1ccc(C(C)(C)COCc2cccc(Oc3ccccc3)c2)cc1 [Etofenprox, 2-(4-ethoxyphenyl)-2-methylpropyl 3-phenoxybenzyl ether] | <0.001 µg/mL
COc1nn(CSP(=S)(OC)OC)c(=O)s1 [Methidathion] | 200 µg/mL (≈ 662 µM)
CCCN(CCC)c1c([N+](=O)[O-])cc(C(F)(F)F)cc1[N+](=O)[O-] [Trifluralin, α,α,α,-trifluoro-2,6-dinitro-N,N-dipropyl-p-toluidine] | 0.4 µg/mL (≈ 1.19 µM)
